Source: ChEMBL document CHEMBL5154745, “Synthesis and antiviral activities of quinazolinamine-coumarin conjugates toward chikungunya and hepatitis C viruses” (Eur J Med Chem, 2022)

Experiments:
[1] = Selectivity index, ratio of CC50 for cytotoxicity against human cells over EC50 for antiviral activity against CHIKV 899 infected in African green monkey Vero cells; assay type: toxicity, cell-based; details: read-out: Ratio CC50/EC50
[2] = Cytotoxicity against human HEL cells measured after 3 days by coulter counting method; assay type: toxicity, cell-based; details: time 3 day
Chikungunya virus [3] = assay: Antiviral activity against CHIKV 899 infected in African green monkey Vero cells measured after 7 days; assay type: functional, organism-based; details: Chikungunya virus, 899, Vero, 168 h
[4] = Lipophilicity, log P of the compound; assay type: physicochemical; details: octanol/water
Hepatitis C virus = assay: Antiviral activity against HCV infected in human Huh-5-2 cells assessed as reduction in viral replication measured by Luciferase reporter gene assay; assay type: functional, organism-based, Hepacivirus hominis
Chikungunya virus [5] = assay: Antiviral activity against CHIKV assessed as inhibition of viral replication; assay type: functional, organism-based

Row | SMILES | selectivity ratio [1] | CC50 at 72 h [2] | EC50 (Chikungunya virus [3]) | logP [4] | EC50 (Hepatitis C virus) | EC50 (Chikungunya virus [5])
1 | CC(C)(C)c1ccc2oc(=O)cc(CSc3nc(Nc4ccncc4)c4ccccc4n3)c2c1 | 8.8 | 17.3 µM | 1.96 µM | 3.93 |  | 
2 | Cc1cc(C)nc(Nc2nc(SCc3cc(=O)oc4ccc(C(C)(C)C)cc34)nc3ccccc23)c1 |  |  | > 151 µM |  |  | 
3 | Cc1cc(C)nc(Nc2nc(S)nc3ccccc23)c1 |  |  | > 33.2 µM |  |  | 
4 | COc1ccccc1Nc1nc(S)nc2ccccc12 | 1.3 | 290 µM | 224 µM |  |  | 
5 | Cc1ccc(Nc2nc(S)nc3ccccc23)c(C)c1 | 2.4 | 142 µM | 59.4 µM |  |  | 
6 | Cc1cccc(Nc2nc(S)nc3ccccc23)c1C | 3.4 | 131 µM | 39.1 µM |  |  | 
7 | Sc1nc(Nc2ccncc2)c2ccccc2n1 | 1.1 | 242 µM | 220 µM |  |  | 
8 | CC(C)(C)c1ccc2oc(=O)cc(CSc3nc(Nc4ccccc4)c4ccccc4n3)c2c1 | 37.2 | 147 µM | 3.95 µM | 4.88 |  | 
9 | O=c1ccc2ccccc2o1 [COUMARIN] |  | > 500 µM |  |  | > 150 µM | 
10 | CC(C)(C)c1ccc2oc(=O)cc(CSc3nc(N(Cc4ccccc4)c4ccccc4)c4ccccc4n3)c2c1 |  |  | > 180 µM |  |  | 
11 | Sc1nc(Nc2cccc3ccccc23)c2ccccc2n1 | 7.4 | 118 µM | 16.1 µM |  |  | 
12 | Cc1ccc(C(=O)Nc2ccc(S(=O)(=O)O)c3cc(S(=O)(=O)O)cc(S(=O)(=O)O)c23)cc1NC(=O)c1cccc(NC(=O)Nc2cccc(C(=O)Nc3cc(C(=O)Nc4ccc(S(=O)(=O)O)c5cc(S(=O)(=O)O)cc(S(=O)(=O)O)c45)ccc3C)c2)c1 [SURAMIN] |  |  |  |  |  | 80 µM
13 | COc1cc2oc(=O)cc(CSc3nc(Nc4ccccc4)c4ccccc4n3)c2cc1OC |  |  | > 212 µM |  |  | 
14 | COc1ccccc1Nc1nc(SCc2cc(=O)oc3ccc(C(C)(C)C)cc23)nc2ccccc12 | 16.8 | 51.9 µM | 3.08 µM | 4.76 |  | 
15 | CC(C)(C)c1ccc2oc(=O)cc(CSc3nc(Nc4cccc5ccccc45)c4ccccc4n3)c2c1 |  |  | > 193 µM |  |  | 
16 | Sc1nc(Nc2ccccc2)c2ccccc2n1 | 2.5 | 275 µM | 108 µM |  |  | 
17 | COc1ccc(CNc2nc(S)nc3ccccc23)cc1 | > 1 | > 336 µM | 329 µM |  |  | 
18 | COc1ccc(CNc2nc(SCc3cc(=O)oc4ccc(C(C)(C)C)cc34)nc3ccccc23)cc1 | > 1.7 | > 147 µM | 85.3 µM |  |  | 
19 | Cc1cccc(Nc2nc(SCc3cc(=O)oc4ccc(C(C)(C)C)cc34)nc3ccccc23)c1C | 10.8 | 150 µM | 13.9 µM | 5.04 | 16.6 µM | 
20 | Cc1ccc(Nc2nc(SCc3cc(=O)oc4ccc(C(C)(C)C)cc34)nc3ccccc23)c(C)c1 |  | 84.6 µM | 3.11 µM | 5.03 | 27.9 µM | 
21 | O=c1cc(CSc2nc(Nc3ccccc3)c3ccccc3n2)c2ccc(O)cc2o1 |  |  | > 234 µM |  |  | 
22 | Cc1ccc2oc(=O)cc(CSc3nc(Nc4ccccc4)c4ccccc4n3)c2c1 |  |  | > 47 µM |  |  | 
